The results in this text go back to patent publication US20110251379A1, “COMPOUNDS USEFUL FOR TREATING NEURODEGENERATIVE DISORDERS” (Satori Pharmaceuticals, Inc., priority 2010, published 2011).

pIC50: −log10 of the molar value. Bounds are passed on as bounds.

In general, pIC50 refers to the negative decadic logarithm of the IC50, by convention in mol/L. In general, inhibition refers to the relative decrease from the control value, in per cent.

One test concerns amyloid-beta (1-42) peptide. Kind of test: ELISA assay of amyloid-beta (1-42) in conditioned media of 2B7 cells. Type of test: cell-based. The conditions noted are these: 5 h, Aβ-42, 2B7 cells, 5 hours; read-out: IC50 range. The gist of the method:
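2B7 cells were treated with compounds for 5 hours at 37° C in media with 1% DMSO. Conditioned media, diluted 1:2 in blocking buffer, went into a sandwich ELISA with 6E10 capture and an HRP-labelled detection antibody, read by TMB at 450 nm. Values came from an Aβ peptide standard curve.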
In general terms: ELISA stands for enzyme-linked immunosorbent assay.
Take `CC(=O)O[C@@H]([C@H]1C[C@@H](C)C2C(O1)[C@H](O)[C@@]1(C)[C@@H]3CC[C@H]4C(C)(C)[C@@H](OC(=O)c5ccccn5)CC[C@@]45C[C@@]35CC[C@]21C)C(C)(C)O` (stereo partly drawn): the pIC50 was no less than 6.00. On the same count and under the same terms, for `C[C@@H]1C[C@H]([C@H](OC(N)=O)C(C)(C)O)OC2C1[C@@]1(C)CC[C@@]34C[C@@]35CC[C@H](O[C@@H]3OC[C@@H](O)[C@H](O)[C@H]3O)C(C)(C)[C@@H]5CC[C@H]4[C@]1(C)[C@H]2O` (stereo partly drawn) the value was 5.00 to 6.00; for `C[C@@H]1C[C@H]([C@H](O)C(C)(C)OC(=O)O)OC2C1[C@@]1(C)CC[C@@]34C[C@@]35CC[C@H](O[C@@H]3OC[C@@H](O)[C@H](O)[C@H]3O)C(C)(C)[C@@H]5CC[C@H]4[C@]1(C)[C@H]2O` (stereo partly drawn), 5.00 to 6.00.

With `CC(=O)O[C@@H]([C@H]1C[C@@H](C)[C@H]2[C@H](O1)[C@H](O)[C@@]1(C)[C@@H]3CC[C@H]4C(C)(C)[C@@H](O[C@H]5CN(C6COC6)CCO5)CC[C@@]45C[C@@]35CC[C@]21C)C(C)(C)O`, the pIC50 is no less than 6.00. `C[C@@H]1C[C@H]([C@H](O)C(C)(C)O)OC2C(=O)[C@@]3(C)[C@@H]4CC[C@H]5C(C)(C)[C@@H](O[C@@H]6OC[C@@H](O)[C@H](O)[C@H]6O)CC[C@@]56C[C@@]46CC[C@]3(C)C21` (stereo partly drawn): the pIC50 is less than 5.00. Still for that read-out and setting: for `CC(=O)O[C@@H]([C@H]1C[C@@H](C)C2C(O1)C(=O)[C@@]1(C)[C@@H]3CC[C@H]4C(C)(C)[C@@H](O)CC[C@@]45C[C@@]35CC[C@]21C)C(C)(C)O` (stereo partly drawn) the value was 5.00 to 6.00. Still for that read-out and setting: in the case of `CN[C@H]1CC[C@]23C[C@]24CC[C@]2(C)C5C(O[C@@H]([C@H](OC(C)=O)C(C)(C)O)C[C@H]5C)[C@H](O)[C@@]2(C)[C@@H]4CC[C@H]3C1(C)C` (stereo partly drawn) it was 5.00 to 6.00.

For the compound `C[C@@H]1C[C@H]([C@@H]2OCOC2(C)C)OC2C1[C@@]1(C)CC[C@@]34C[C@@]35CC[C@H](O[C@@H]3OC[C@@H](O)[C@H](O)[C@H]3O)C(C)(C)[C@@H]5CC[C@H]4[C@]1(C)[C@H]2O` (stereo partly drawn), the pIC50 is 5.00 to 6.00. Same read-out and setting: for `C[C@@H]1C[C@H](CO)O[C@H]2C1[C@@]1(C)CC[C@@]34C[C@@]35CC[C@H](O[C@@H]3OC[C@@H](O)[C@H](O)[C@H]3O)C(C)(C)[C@@H]5CC[C@H]4[C@]1(C)[C@H]2O` (stereo partly drawn) the value was less than 5.00; for `CC(=O)O[C@@H]([C@H]1C[C@@H](C)[C@H]2[C@H](O1)[C@H](O)[C@@]1(C)[C@@H]3CC[C@H]4C(C)(C)[C@@H](O[C@H]5CN(CCN(C)C)CCO5)CC[C@@]45C[C@@]35CC[C@]21C)C(C)(C)O`, no less than 6.00; for `CCC(=O)OC(C)(C)[C@H]1OC23O[C@@H]1C[C@@H](C)[C@@H]2[C@@]1(C)CC[C@@]24C[C@@]25CC[C@H](O[C@@H]2OC[C@@H](O)[C@H](O)[C@H]2O)C(C)(C)[C@@H]5CC[C@H]4[C@]1(C)[C@H]3O`, 5.00 to 6.00. Same read-out and setting: for `CC(=O)O[C@@H]([C@H]1C[C@@H](C)[C@H]2[C@H](O1)[C@H](O)[C@@]1(C)[C@@H]3CC[C@H]4C(C)(C)[C@@H](O[C@H]5CN(S(C)(=O)=O)CCO5)CC[C@@]45C[C@@]35CC[C@]21C)C(C)(C)O` the value was no less than 6.00; for `CC(=O)O[C@@H]([C@H]1C[C@@H](C)C2C(O1)[C@H](O)[C@@]1(C)[C@@H]3CC[C@H]4C(C)(C)[C@@H](OC5CN(CC(N)=O)CCO5)CC[C@@]45C[C@@]35CC[C@]21C)C(C)(C)O` (stereo partly drawn) [drawing 942], no less than 6.00.

As to `CCC(=O)O[C@@H]([C@H]1C[C@@H](C)C2C(O1)[C@H](O)[C@@]1(C)[C@@H]3CC[C@H]4C(C)(C)[C@@H](O)CC[C@@]45C[C@@]35CC[C@]21C)C(C)(C)O` (stereo partly drawn) [drawing 908], the negative-log IC50 (pIC50) is less than 5.00.

In the case of `COCCN1CCOC(O[C@H]2CC[C@]34C[C@]35CC[C@]3(C)C6C(O[C@@H]([C@H](OC(C)=O)C(C)(C)O)C[C@H]6C)[C@H](O)[C@@]3(C)[C@@H]5CC[C@H]4C2(C)C)C1` (stereo partly drawn), the pIC50 was no less than 6.00.

The same test, now with this note: Aβ-42, 10 umol/L; read-out: % Inhibition (range).
For the compound `CC(=O)O[C@@H]([C@H]1C[C@@H](C)C2=C(O1)C(=O)[C@@]1(C)[C@@H]3CC[C@H]4C(C)(C)C(=O)CC[C@@]45C[C@@]35CC[C@]21C)C(C)(C)O`, the inhibition at 10 µM was less than 25%. Same read-out and setting: in the case of `C[C@@H]1C(I)COC2C[C@H]3[C@@H]4CC=C5C[C@@H](O)CC[C@]5(C)[C@H]4CC[C@]3(C)C21` (stereo partly drawn) it was less than 25%.

Still in this test, the particulars now being: Aβ-42, 20 umol/L.
For the compound `C[C@@H]1C[C@H]([C@H](O)C(C)(C)O)OC2C1[C@@]1(C)CC[C@@]34C[C@@]35CC[C@H](O)C(C)(C)[C@@H]5CC[C@H]4[C@]1(C)[C@H]2O` (stereo partly drawn) [drawing 890], the “% Inhibition (range)” value is reported as “E (% inhibition of 25-75%)”. The same measure, in the same setting: for `CC1CC(CO)OC2C1C1(C)CCC34CC35CCC(OC3OCC(O)C(O)C3O)C(C)(C)C5CCC4C1(C)C2O` (stereo not drawn) [drawing 782] the value was “E (% inhibition of 25-75%)”; for `CC1CC(C(O)C(C)(C)O)OC2C1C1(C)CCC34CC35CCC(OC3CN(C6CCOC6)CCO3)C(C)(C)C5CCC4C1(C)C2O` (single isomer, unassigned) [drawing 1106], “E (% inhibition of 25-75%)”.

The same test, now with this note: Aβ-42, 20 umol/L; read-out: % Inhibition (range).
For the compound `C[C@@H]1C[C@H](C(=O)C(C)(C)O)OC2C1[C@@]1(C)CC[C@@]34C[C@@]35CC[C@H](O)C(C)(C)[C@@H]5CC[C@H]4[C@]1(C)[C@H]2O` (stereo partly drawn), the inhibition at 20 µM was less than 25%.

On to `C[C@@H]1C[C@H]([C@H](OC(N)=O)C(C)(C)O)OC2C1[C@@]1(C)CC[C@@]34C[C@@]35CC[C@H](O)C(C)(C)[C@@H]5CC[C@H]4[C@]1(C)[C@H]2O` (stereo partly drawn), for which the inhibition at 20 µM is 25 to 75%.

Staying with this test, now noted: Aβ-42, 100 umol/L.
In the case of `CC1CC(C(O)C(C)(C)O)OC2C1C1(C)CCC34CC35CCC(OC3CN(C(=O)Cc6ccncc6)CCO3)C(C)(C)C5CCC4C1(C)C2O` (stereo not drawn), the “% Inhibition (range)” value is “F (% inhibition of <25%)”.

The same test, now with this note: Aβ-42, 100 umol/L; read-out: % Inhibition (range).
With `CC(=O)O[C@@H]([C@H]1C[C@@H](C)C2C(O1)[C@H](O)[C@@]1(C)[C@@H]3CC[C@H]4C(C)(C)C(=O)CC[C@@]45C[C@@]35CC[C@]21C)C(C)(C)O` (stereo partly drawn), the inhibition at 100 µM is 25 to 75%.

As for `CCC(=O)O[C@@H]([C@H]1C[C@@H](C)C2C(O1)[C@H](O)[C@@]1(C)[C@@H]3CC[C@H]4C(C)(C)[C@@H](O)CC[C@@]45C[C@@]35CC[C@]21C)C(C)(C)O` (stereo partly drawn) [drawing 908], the inhibition at 100 µM lay in the range of 25 to 75%.

The test is the same for the next values; noted with them: Aβ-42, 2B7 cells, 5 hours; read-out: IC50 range.
Turning to `CC(=O)N(Cc1cc(F)cc(F)c1)CC1CC(C)C2C(O1)C(O)C1(C)C3CCC4C(C)(C)C(OC(=O)c5cccnc5)CCC45CC35CCC21C` (stereo not drawn), the pIC50 was 5.00 to 6.00. As to `CC(=O)OCC1CC(C)C2C(O1)C(O)C1(C)C3CCC4C(C)(C)C(OC5OCC(O)C(O)C5O)CCC45CC35CCC21C` (stereo not drawn) [drawing 792], the pIC50 was 5.00 to 6.00. With `CC1CC(CNCc2ccccc2)OC2C1C1(C)CCC34CC35CCC(O)C(C)(C)C5CCC4C1(C)C2O` (stereo not drawn), the pIC50 was less than 5.00. On the same count and under the same terms, for `CNCC1CC(C)C2C(O1)C(O)C1(C)C3CCC4C(C)(C)C(OC5OCC(O)C(O)C5O)CCC45CC35CCC21C` (stereo not drawn) the value was less than 5.00; for `CC(=O)N(CC1CC(C)C2C(O1)C(O)C1(C)C3CCC4C(C)(C)C(O)CCC45CC35CCC21C)C(C)(C)C` (stereo not drawn), greater than 5.00; for `CC(=O)N(Cc1cc(F)c(F)c(F)c1)CC1CC(C)C2C(O1)C(O)C1(C)C3CCC4C(C)(C)C(O)CCC45CC35CCC21C` (stereo not drawn), 5.00 to 6.00.

In the case of `CC1CC(CN(C)C(=O)C(C)(C)C)OC2C1C1(C)CCC34CC35CCC(O)C(C)(C)C5CCC4C1(C)C2O` (stereo not drawn), the pIC50 is less than 5.00.

Take `CCC(=O)OC(C1CC(C)C2C(O1)C(O)C1(C)C3CCC4C(C)(C)C(OC5CN(C6COC6)CCO5)CCC45CC35CCC21C)C(C)(C)O` (stereo not drawn) [drawing 805]: the pIC50 was no less than 6.00. `CC1CC(C(=O)C(C)(C)O)OC2C1C1(C)CCC34CC35CCC(O)C(C)(C)C5CCC4C1(C)C2O` (stereo not drawn) [drawing 864]: the pIC50 was less than 5.00.

As for `CC(=O)N(CC1CC(C)C2C(O1)C(O)C1(C)C3CCC4C(C)(C)C(O)CCC45CC35CCC21C)CC(C)(C)O` (stereo not drawn), the pIC50 was less than 5.00. Still for that read-out and setting: for `C=C(C)C(OC(C)=O)C1CC(C)C2C(O1)C(O)C1(C)C3CCC4C(C)(C)C(OC5CN(CC(=O)N(C)C)CCO5)CCC45CC35CCC21C` (stereo not drawn) the value was 5.00 to 6.00; for `CC1CC(C(O)C(C)(C)O)OC2C1C1(C)CCC34CC35CCC(OC3CN(C(=O)c6ccc(F)cc6)CCO3)C(C)(C)C5CCC4C1(C)C2O` (stereo not drawn), 5.00 to 6.00; for `CC1CC(CNC(C)(C)C)OC2C1C1(C)CCC34CC35CCC(OS(C)(=O)=O)C(C)(C)C5CCC4C1(C)C2O` (stereo not drawn), less than 5.00. Same read-out and setting: in the case of `CC(=O)N(Cc1ccccc1)CC1CC(C)C2C(O1)C(O)C1(C)C3CCC4C(C)(C)C(O)CCC45CC35CCC21C` (stereo not drawn) [drawing 801] it was 5.00 to 6.00; in that of `CC(C)C(=O)OC(C1CC(C)C2C(O1)C(O)C1(C)C3CCC4C(C)(C)C(OC5CN(C6COC6)CCO5)CCC45CC35CCC21C)C(C)(C)O` (stereo not drawn) [drawing 866], less than 5.00. Same read-out and setting: for `CC(=O)N(Cc1ccccc1)CC1CC(C)C2C(O1)C(O)C1(C)C3CCC4C(C)(C)C(OC(=O)c5cccnc5)CCC45CC35CCC21C` (stereo not drawn) the value was 5.00 to 6.00. For `CC(=O)N(Cc1cc(F)cc(F)c1)CC1CC(C)C2C(O1)C(O)C1(C)C3CCC4C(C)(C)C(OC(=O)c5ccncc5)CCC45CC35CCC21C` (stereo not drawn), the pIC50 is less than 5.00. Still for that read-out and setting: in the case of `CC(C)NC(=O)N(Cc1ccccc1)CC1CC(C)C2C(O1)C(O)C1(C)C3CCC4C(C)(C)C(O)CCC45CC35CCC21C` (stereo not drawn) it was less than 5.00. On the same count and under the same terms, for `CC1CC(C(O)C(C)(C)O)OC2C1C1(C)CCC34CC35CCC(OC3CN(C(=O)CC6CCCCC6)CCO3)C(C)(C)C5CCC4C1(C)C2O` (stereo not drawn) the value was no less than 6.00; for `CC1CC(CO)OC2C1C1(C)CCC34CC35CCC(OC3OCC(O)C(O)C3O)C(C)(C)C5CCC4C1(C)C2O` (stereo not drawn) [drawing 782], less than 5.00; for `CC(=O)N(CC1CC(C)C2C(O1)C(O)C1(C)C3CCC4C(C)(C)C(O)CCC45CC35CCC21C)C(C)c1ccc(F)cc1` (stereo not drawn), 5.00 to 6.00. On to `CC(=O)N(C)CC1CC(C)C2C(O1)C(O)C1(C)C3CCC4C(C)(C)C(O)CCC45CC35CCC21C` (stereo not drawn), for which the negative logarithm of the IC50 (pIC50) is less than 5.00. Still for that read-out and setting: for `CC(=O)NCC1CC(C)C2C(O1)C(O)C1(C)C3CCC4C(C)(C)C(O)CCC45CC35CCC21C` (stereo not drawn) the value was less than 5.00.
